Assay results reported in the supplement of paper PMC10307832.

Tests used:
Assay in all cases: relative viability (nuclei count vs DMSO), 5 days (fraction); higher = more cells survive
[1] = compound: C1=CC2=C(C=C(C(=C2N=C1)O)N=NC3=CC4=C(C=C3)C=C(C=C4)S(=O)(=O)O)S(=O)(=O)O + CC(C)C[C@H](NC(=O)[C@H](Cc1ccccc1)NC(=O)c1cnccn1)B(O)O [Bortezomib] (partner 0.002 µM)
In short: (§1)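 Lung cancer cell lines in 1536-well plates got either a single drug or a fixed anchor-drug dose together with five library-drug doses (not always all listed) in √10 steps, by pin tool, on the day after seeding. Nuclei were counted after 5 days, and relative viability is the treated-to-vehicle ratio of nuclei counts. Values are medians of duplicate plates.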

[2] = compound: C1=CC2=C(C=C(C(=C2N=C1)O)N=NC3=CC4=C(C=C3)C=C(C=C4)S(=O)(=O)O)S(=O)(=O)O + CCNC(=O)c1noc(-c2cc(C(C)C)c(O)cc2O)c1-c1ccc(CN2CCOCC2)cc1 [Luminespib] (partner 0.01 µM)
In short: as §1

[3] = compound: C1=CC2=C(C=C(C(=C2N=C1)O)N=NC3=CC4=C(C=C3)C=C(C=C4)S(=O)(=O)O)S(=O)(=O)O + Cc1nc(Nc2ncc(C(=O)Nc3c(C)cccc3Cl)s2)cc(N2CCN(CCO)CC2)n1 [Dasatinib] (partner 0.075 µM)
In short: as §1

AT-7519 + Lapatinib = compound: O=C(NC1CCNCC1)c1n[nH]cc1NC(=O)c1c(Cl)cccc1Cl [AT-7519] + CS(=O)(=O)CCNCc1ccc(-c2ccc3ncnc(Nc4ccc(OCc5cccc(F)c5)c(Cl)c4)c3c2)o1 [Lapatinib] (partner 2 µM)
In short: as §1

Q: What does the source list for UMC-11?
A: relative viability ([1]; first compound 0.08 µM): 0.84; relative viability ([1]; first compound 0.253 µM): 0.783; relative viability ([1]; first compound 0.8 µM): 0.708; relative viability ([1]; first compound 2.53 µM): 0.633; relative viability ([1]; first compound 8 µM): 0.606; relative viability ([2]; first compound 0.08 µM): 1.14; relative viability ([2]; first compound 0.253 µM): 1.04; relative viability ([2]; first compound 0.8 µM): 0.862; relative viability ([2]; first compound 2.53 µM): 0.992; relative viability ([2]; first compound 8 µM): 1.02; relative viability ([3]; first compound 0.08 µM): 0.493; relative viability ([3]; first compound 0.253 µM): 0.454; relative viability ([3]; first compound 0.8 µM): 0.456; relative viability ([3]; first compound 2.53 µM): 0.439; relative viability ([3]; first compound 8 µM): 0.441; relative viability (AT-7519 + Lapatinib; first compound 0.01 µM): 1.18; relative viability (AT-7519 + Lapatinib; first compound 0.03162 µM): 0.988; relative viability (AT-7519 + Lapatinib; first compound 0.3162 µM): 0.519; relative viability (AT-7519 + Lapatinib; first compound 1 µM): 0.252
